Test results taken from PubChem BioAssay (NCI).
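How tested: cells in 96-well plates exposed to compound for 48 hours at five concentrations. At the TGI there is no net growth.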

What follows are compounds tested on SNB-75 CNS (assay: DTP human tumour cell line panel, 48 h).

| SMILES | TGI |
| --- | --- |
| CCNC(=S)NNC(=O)C12CC3CC(CC(C3)C1)C2 | > 100 µM |
| CCN(CC)CCNc1nc(N)c(C#N)c(C#N)c1C#N | > 10 µM |
| CC1(C)OC[C@@H](O)[C@H](C#N)CO1 | > 100 µM |
| CCOc1ccc(/C=C2\N=C(c3ccc([N+](=O)[O-])cc3)OC2=O)cc1 | > 100 µM |
| CCC(C)(C)c1ccc(OCCCCNC(=O)c2ccc3ccccc3c2O)c(C(C)(C)CC)c1 | > 100 µM |

Each compound was assayed on K-562 leukemia (assay: DTP human tumour cell line panel, 48 h).

| SMILES | TGI |
| --- | --- |
| CN1CCOC1c1ccccc1O (stereo not drawn) | > 100 µM |
| CCNC(=S)NNC(=O)C12CC3CC(CC(C3)C1)C2 | > 100 µM |
| CCN(CC)CCNc1nc(N)c(C#N)c(C#N)c1C#N | > 10 µM |
| CC1(C)OC[C@@H](O)[C@H](C#N)CO1 | > 100 µM |
| CCOc1ccc(/C=C2\N=C(c3ccc([N+](=O)[O-])cc3)OC2=O)cc1 | > 100 µM |
| CSc1cc(-c2cccs2)sc1-c1cc(SC)c(-c2sc(-c3sc(-c4cccs4)cc3SC)cc2SC)s1 | > 100 µM |
| CCC(C)(C)c1ccc(OCCCCNC(=O)c2ccc3ccccc3c2O)c(C(C)(C)CC)c1 | > 100 µM |

Each compound was assayed on HCT-15 colon (assay: DTP human tumour cell line panel, 48 h).

| SMILES | TGI |
| --- | --- |
| CN1CCOC1c1ccccc1O (stereo not drawn) | > 100 µM |
| CCNC(=S)NNC(=O)C12CC3CC(CC(C3)C1)C2 | > 100 µM |
| CCN(CC)CCNc1nc(N)c(C#N)c(C#N)c1C#N | > 10 µM |
| CC1(C)OC[C@@H](O)[C@H](C#N)CO1 | > 100 µM |
| CCOc1ccc(/C=C2\N=C(c3ccc([N+](=O)[O-])cc3)OC2=O)cc1 | > 100 µM |
| CSc1cc(-c2cccs2)sc1-c1cc(SC)c(-c2sc(-c3sc(-c4cccs4)cc3SC)cc2SC)s1 | > 100 µM |
| CCC(C)(C)c1ccc(OCCCCNC(=O)c2ccc3ccccc3c2O)c(C(C)(C)CC)c1 | 28.5 µM |

The compounds below were run on TK-10 renal (assay: DTP human tumour cell line panel, 48 h).

| SMILES | TGI |
| --- | --- |
| CN1CCOC1c1ccccc1O (stereo not drawn) | > 100 µM |
| CCNC(=S)NNC(=O)C12CC3CC(CC(C3)C1)C2 | > 100 µM |
| CCN(CC)CCNc1nc(N)c(C#N)c(C#N)c1C#N | > 10 µM |
| CC1(C)OC[C@@H](O)[C@H](C#N)CO1 | > 100 µM |
| CCOc1ccc(/C=C2\N=C(c3ccc([N+](=O)[O-])cc3)OC2=O)cc1 | > 100 µM |
| CSc1cc(-c2cccs2)sc1-c1cc(SC)c(-c2sc(-c3sc(-c4cccs4)cc3SC)cc2SC)s1 | > 100 µM |
| CCC(C)(C)c1ccc(OCCCCNC(=O)c2ccc3ccccc3c2O)c(C(C)(C)CC)c1 | 80 µM |

Each compound was assayed on UO-31 renal (assay: DTP human tumour cell line panel, 48 h).

| SMILES | TGI |
| --- | --- |
| CN1CCOC1c1ccccc1O (stereo not drawn) | > 100 µM |
| CCNC(=S)NNC(=O)C12CC3CC(CC(C3)C1)C2 | > 100 µM |
| CCN(CC)CCNc1nc(N)c(C#N)c(C#N)c1C#N | > 10 µM |
| CC1(C)OC[C@@H](O)[C@H](C#N)CO1 | > 100 µM |
| CCC(C)(C)c1ccc(OCCCCNC(=O)c2ccc3ccccc3c2O)c(C(C)(C)CC)c1 | > 100 µM |

The compounds below were run on SNB-19 CNS (assay: DTP human tumour cell line panel, 48 h).

| SMILES | TGI |
| --- | --- |
| CN1CCOC1c1ccccc1O (stereo not drawn) | > 100 µM |
| CCNC(=S)NNC(=O)C12CC3CC(CC(C3)C1)C2 | > 100 µM |
| CCN(CC)CCNc1nc(N)c(C#N)c(C#N)c1C#N | > 10 µM |
| CC1(C)OC[C@@H](O)[C@H](C#N)CO1 | > 100 µM |
| CCOc1ccc(/C=C2\N=C(c3ccc([N+](=O)[O-])cc3)OC2=O)cc1 | > 100 µM |
| CSc1cc(-c2cccs2)sc1-c1cc(SC)c(-c2sc(-c3sc(-c4cccs4)cc3SC)cc2SC)s1 | > 100 µM |
| CCC(C)(C)c1ccc(OCCCCNC(=O)c2ccc3ccccc3c2O)c(C(C)(C)CC)c1 | > 100 µM |

What follows are compounds tested on NCI-H23 lung (assay: DTP human tumour cell line panel, 48 h).

| SMILES | TGI |
| --- | --- |
| CN1CCOC1c1ccccc1O (stereo not drawn) | > 100 µM |
| CCNC(=S)NNC(=O)C12CC3CC(CC(C3)C1)C2 | > 100 µM |
| CCN(CC)CCNc1nc(N)c(C#N)c(C#N)c1C#N | > 10 µM |
| CC1(C)OC[C@@H](O)[C@H](C#N)CO1 | > 100 µM |
| CCOc1ccc(/C=C2\N=C(c3ccc([N+](=O)[O-])cc3)OC2=O)cc1 | > 100 µM |
| CSc1cc(-c2cccs2)sc1-c1cc(SC)c(-c2sc(-c3sc(-c4cccs4)cc3SC)cc2SC)s1 | > 100 µM |
| CCC(C)(C)c1ccc(OCCCCNC(=O)c2ccc3ccccc3c2O)c(C(C)(C)CC)c1 | > 100 µM |

These compounds were tested on PC-3 prostate (assay: DTP human tumour cell line panel, 48 h).

| SMILES | TGI |
| --- | --- |
| CN1CCOC1c1ccccc1O (stereo not drawn) | > 100 µM |
| CCNC(=S)NNC(=O)C12CC3CC(CC(C3)C1)C2 | > 100 µM |
| CCN(CC)CCNc1nc(N)c(C#N)c(C#N)c1C#N | > 10 µM |
